Results reported in US11471462B2, “Compositions and methods for detecting and treating diabetes” (THE BROAD INSTITUTE, INC., priority 2016, dated 2022).
Read-outs that look alike come from different tables or passages of the source.

Assays:
SLC16A11 [1] = experiment: CRISPR (SAM) transactivation assay, SLC16A11 expression in 293T cells; format: cell-based, human; settings: Cas9-based transactivators (SAM) targeted near variant
From the text: These experiments are based upon Cas9 based transactivators (SAM or synergistic activation mediators) as described in Konermann et al (Nature 517: 583-588, 2015). Similar experiments based on other types of transactivators that are more finely tuned to distal activation such as those described in Hilton et al. (Nature 33:510-518, 2015) could also be envisioned. Cas9 was used to target transactivators to sites near individual variants in the credible set. Their ability to activate SLC16A11 gene expression was assessed (Table 10).
Cell lines derived from HEK293-T cells were established by lentivirus infection resulting in stable integration of two components of the SAM system namely dCas9-VP64 and MS2-p65-HSF1. The resulting stable cell lines were then plated into 96 well plates and left overnight. The next day, cells were transfected with the guide RNAs (pHKO23), the final component of the SAM system. After an additional 48 hours, cells were harvested for gene expression analyses.

SLC16A11 [2] = experiment: Compound treatment, SLC16A11 expression by ddPCR in SNU761 cells; format: cell-based, human
Description: A small number of the compounds that made the strongest positive connections to the SLC16A11 gene expression signature were selected and tested. […] Methotrexate was also included, which had been annotated as a dihydrofolate reductase inhibitor. SNU761 cells (derived from a human hepatocellular carcinoma) and NCIH716 cells (derived from a human cecum adenocarcinoma), which both express SLC16A11, were treated with the compounds. The same compound concentrations and treatment times were used as in the LINCS dataset experiments. […] For normalization, a different housekeeper gene, HPRT1, was used and obtained similar results with the mTOR inhibitors (FIGS. 14A and 14B).
From the total list of compounds, 59 readily available compounds were selected from the 79 compounds with the largest connectivity scores to the query signature and 20 middle compounds with connectivity scores centered on 0 (FIG. 15A) and then treated SNU761 cells at the same doses and treatment times as were used in the LINCS dataset. It was expected that the top compounds would be enriched for compounds that increased SLC16A11 expression. […] The results were aligned with the expectations (FIG. 15B). Hierarchical clustering of the SLC16 expression profiles generated by the compound treatments are shown by the heat map in FIG. 15C.
SNU761 (human hepatocellular carcinoma) and NCIH716 (human cecum adenocarcinoma) were cultured in RPMI Medium 1640 supplemented with 10% Fetal Bovine Serum (FBS), 100 μg/ml Streptomycin and 100 U/ml Penicillin. Cells were grown in a humidified CO2 incubator, at 37° C.
For the unbiased approach taken to investigate the compounds that connected to the SLC16A11 gene expression signature, compounds were obtained from compound management at the Broad Institute.
SNU761 and NCIH716 cells were plated into 96 well plates at a density of 20,000 cells per well. Hepatocytes were plated into collagen coated 96 well plates (Corning, 354408) at a density of 50,000 cells per well. After 24 hours, cells were treated with compounds at a final concentration of 10 μM or vehicle control for the appropriate amount of time.
At the time of collection, cells in 96 well plates were lysed by directly adding 50 μL of RLT buffer (Qiagen). 75 μL of AMPure XP beads, diluted by a factor of 5 in polyethylene glycol, were then added to bind nucleic acids. One wash with polyethylene glycol was then performed. DNase treatment (Qiagen) was carried out according to the manufacturer's protocol in a final volume of 50 μL. 100 μL of polyethylene glycol was added after the DNase treatment to crowd nucleic acids back onto the beads. Two washes with 80% ethanol were performed and residual ethanol was removed. RNA was then eluted in water.
RNA was DNase treated and converted into cDNA using the High-Capacity RNA-to-cDNA kit (Thermo Fisher Scientific). The following FAM-labeled TaqMan Real-Time PCR assays (Thermo Fisher Scientific) were used to quantify gene expression: SLC16A11 (Hs00601062_g1), SLC16A13 (Hs00416832_m1), SLC16A1 (Hs01560299_m1). The VIC-labeled TaqMan Real-Time assays TBP (Hs00427620_m1) or HPRT1 (Hs02800695_m1) were used for normalization. Droplets were generated and analyzed using a QX200 Droplet Generator and Reader system (BioRad). Data was extracted using QuantaSoft (BioRad) and analyzed using Microsoft Excel.

[3] = SNU761 cells, same doses and treatment times as in the LINCS dataset

| Compound | avg_fc (SLC16A11 expression, compound treated vs DMSO treated cells) (SLC16A11 [2]; [3]) | further results |
| --- | --- | --- |
| ACGGAAACTGGCGCGCTCCA (chemistry not given here) |  | Increases SLC16A11 transcript levels in transactivator assay (SLC16A11 [1]): TRUE |
| GCGGGATTTAGGCATTGTTG (chemistry not given here) |  | Increases SLC16A11 transcript levels in transactivator assay (SLC16A11 [1]): TRUE |
| rs2292351 (guide 1 AGCCTCTGGCTGCTCGCCCG; guide 2 CACCCCGGGCGAGCAGCCAG; listed as DNA, chemistry not given here; listed as Homo sapiens) |  | Increases SLC16A11 transcript levels in transactivator assay (SLC16A11 [1]): TRUE |
| GGCTGCGTGTTAGTGGCTTC (chemistry not given here) |  | Increases SLC16A11 transcript levels in transactivator assay (SLC16A11 [1]): TRUE |
| rs1698227 (guide 1 TGGTGCTAAGGGGCACACAC; guide 2 TGCTCATTTTCCTCTGCACT; listed as DNA, chemistry not given here; listed as Homo sapiens) |  | Increases SLC16A11 transcript levels in transactivator assay (SLC16A11 [1]): FALSE |
| TGGCTCTGGGTGCTGAAACG (chemistry not given here) |  | Increases SLC16A11 transcript levels in transactivator assay (SLC16A11 [1]): TRUE |
| TCACGCGCGGCTTGCCGGAT (chemistry not given here) |  | Increases SLC16A11 transcript levels in transactivator assay (SLC16A11 [1]): TRUE |
| rs77552976 (guide 1 GAAAGGGCTGCCGTGCTGTT; guide 2 CCTGGCTGGACCTAACAGCA; listed as DNA, chemistry not given here; listed as Homo sapiens) |  | Increases SLC16A11 transcript levels in transactivator assay (SLC16A11 [1]): FALSE |
| TGTTCTCAGGAACGTTGCCG (chemistry not given here) |  | Increases SLC16A11 transcript levels in transactivator assay (SLC16A11 [1]): TRUE |
| rs73239895 (guide 1 ACTCCTGCCGGAGGTTCTCG; guide 2 AGGCCCCGAGAACCTCCGGC; listed as DNA, chemistry not given here; listed as Homo sapiens) |  | Increases SLC16A11 transcript levels in transactivator assay (SLC16A11 [1]): FALSE |
| CCCC[C@@H](C=O)NC(=O)[C@H](CC(C)C)NC(=O)OCc1ccccc1 [calpeptin] | 1.034 |  |
| c1ccc2c(CCNc3ccc(Nc4ccncc4)cc3)c[nH]c2c1 [JNJ-26854165] | 0.5328 |  |
| COc1ccc2c(c1OC)N=C(NC(=O)c1cccnc1)N1CCN=C21 [PIK-90] | 1.487 |  |
| CC(C)OC(=O)c1cc2c(OCC(O)CNC(C)(C)C)cccc2[nH]1 (stereo not drawn) [carpindolol] | 0.8548 |  |
| Nc1nc(Cl)nc2c1ncn2[C@H]1C[C@H](O)[C@@H](CO)O1 [cladribine] | 0.5994 |  |
| CCCS(=O)(=O)Nc1ccc(F)c(C(=O)c2c[nH]c3ncc(-c4ccc(Cl)cc4)cc23)c1F [vemurafenib] | 1.368 |  |
| CC1(C)C[C@@H]1C(=O)N/C(=C\CCCCSC[C@H](N)C(=O)O)C(=O)O [cilastatin] | 0.9371 |  |
| Cc1onc(-c2ccccc2)c1-c1ccc(S(N)(=O)=O)cc1 [valdecoxib] | 1.069 |  |
| N#CC(=C(/N)Sc1ccccc1N)/C(C#N)=C(\N)Sc1ccccc1N [U0126] |  | avg_fc (SLC16A11 expression, compound treated vs DMSO treated cells) (SLC16A11 [2]): 1.885 |

| Compound | avg_fc (SLC16A11 expression, compound treated vs DMSO treated cells) (SLC16A11 [2]; [3]) | further results |
| --- | --- | --- |
| Clc1cncc(N2CCNCC2)n1 [MK-212] | 0.8022 |  |
| Nc1ccn([C@H]2CC[C@@H](CO)O2)c(=O)n1 [zalcitabine] | 1.01 |  |
| OCCOCCN1CCN(C2=Nc3ccccc3Sc3ccccc32)CC1 [quetiapine] | 1.019 |  |
| Cn1c(=O)n(-c2ccc(C(C)(C)C#N)cc2)c2c3cc(-c4cnc5ccccc5c4)ccc3ncc21 [NVP-BEZ235, 2-methyl-2-[4-(3-methyl-2-oxo-8-quinolin-3-ylimidazo[4,5-c]quinolin-1-yl)phenyl]propanenitrile, reference compound] | 2.779 |  |
| NC(=O)Nc1cc(-c2cccc(F)c2)sc1C(=O)N[C@H]1CCCNC1 [AZD-7762, 3-[(aminocarbonyl)amino]-5-(3-fluorophenyl)-N-(3S)-3-piperidinyl-2-thiophenecarboxamide, reference compound] | 4.924 | increase in SLC16A11 expression, compound treated compared to DMSO treated cells (SLC16A11 [2]; SNU761 cells, unbiased test of 59 top and 20 middle LINCS compounds, LINCS doses and times): about 5 fold |
| CC(C)COCC(CN(Cc1ccccc1)c1ccccc1)N1CCCC1 (stereo not drawn) [bepridil] | 0.8545 |  |
| N#CC(=C(N)Sc1ccc(N)cc1)c1ccccc1C(F)(F)F [MEK1-2-inhibitor] | 1.414 |  |
| O=C1NC(=O)/C(=C\c2ccc3nccnc3c2)S1 [AS-605240] | 0.7908 |  |
| O=C1NC(=O)/C(=C/c2ccc3nccc(-c4ccncc4)c3c2)S1 [GSK-1059615] | 1.25 |  |
| CO[C@H]1C[C@@H]2CC[C@@H](C)[C@@](O)(O2)C(=O)C(=O)N2CCCC[C@H]2C(=O)O[C@H]([C@H](C)C[C@@H]2CC[C@@H](OC(=O)C(C)(CO)CO)[C@H](OC)C2)CC(=O)[C@H](C)/C=C(\C)[C@@H](O)[C@@H](OC)C(=O)[C@H](C)C[C@H](C)/C=C/C=C/C=C/1C [temsirolimus] | 1.372 |  |
| c1ccc2c(CCNc3ccc(Nc4ccncc4)cc3)c[nH]c2c1 [serdemetan] | 0.6384 |  |
| bisindolylmaleimide | 0.4265 |  |
| Nc1[nH]nc2nnc(-c3c(-c4ccccc4)nn4ccccc34)cc12 [FR-180204] | 0.915 |  |
| O=C1OC2(c3ccccc31)c1cc(I)c(O)c(I)c1Oc1c2cc(I)c(O)c1I [erythrosine] | 0.649 |  |
| CO[C@H]1C[C@@H]2CC[C@@H](C)[C@@](O)(O2)C(=O)C(=O)N2CCCC[C@H]2C(=O)O[C@H]([C@H](C)C[C@@H]2CC[C@@H](O)[C@H](OC)C2)CC(=O)[C@H](C)/C=C(\C)[C@@H](O)[C@@H](OC)C(=O)[C@H](C)C[C@H](C)/C=C/C=C/C=C/1C [rapamycin, reference compound] | 1.662 |  |
| Nc1nc(N)c2nc(-c3cccc(O)c3)c(-c3cccc(O)c3)nc2n1 [TG100-115] | 1.086 |  |
| CO[C@H]1C[C@@H]2CC[C@@H](C)[C@@](O)(O2)C(=O)C(=O)N2CCCC[C@H]2C(=O)O[C@H]([C@H](C)C[C@@H]2CC[C@@H](OP(C)(C)=O)[C@H](OC)C2)CC(=O)[C@H](C)/C=C(\C)[C@@H](O)[C@@H](OC)C(=O)[C@H](C)C[C@H](C)/C=C/C=C/C=C/1C [deforolimus, reference compound] | 1.903 |  |
| Cc1nc2c(c(=O)[nH]1)CSCC2 [DR-2313] | 1.127 |  |
| COc1ccc(CNC(=O)/C=C/c2ccc3[nH]cc(CCN(C)C)c3c2)cc1 [GR-46611] | 0.6609 |  |
